Experimental data from the supplement of paper PMC4862054.

Assays:
Settings in all cases: incubation time: 72 h
[1] = tested on: MDA-MB-231; test: normalised response (% of control), CellTox Green; higher = less cell death (100 = DMSO, 0 = benzethonium chloride kill control)
Method in brief: (§1)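 Each value is the plate-normalised signal at one concentration of the series. Breast cancer cell lines (20 µl suspension) were incubated 72 h in 384-well plates with compound at 5 concentrations in 10-fold steps over a compound-specific 10,000-fold range. CellTox Green and then CellTiter-Glo were read, and each plate was scaled to 0.1 % DMSO (100) and a positive kill control (0).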

[2] = tested on: CAL-120; test: as above
Method in brief: as §1

[3] = tested on: MDA-MB-468; test: as above
Method in brief: as §1

[4] = tested on: MDA-MB-436; test: as above
Method in brief: as §1

[5] = tested on: CAL-148; test: as above
Method in brief: as §1

[6] = tested on: MCF-10A; test: as above
Method in brief: as §1

[7] = tested on: BT-549; test: as above
Method in brief: as §1

[8] = tested on: HCC1937; test: as above
Method in brief: as §1

[9] = tested on: HCC1599; test: as above
Method in brief: as §1

[10] = tested on: MDA-MB-453; test: as above
Method in brief: as §1

[11] = tested on: CAL-51; test: as above
Method in brief: as §1

[12] = tested on: Hs578T; test: as above
Method in brief: as §1

[13] = tested on: DU-4475; test: as above
Method in brief: as §1

[14] = tested on: BT-474; test: as above
Method in brief: as §1

[15] = tested on: CAL-85-1; test: as above
Method in brief: as §1

[16] = tested on: MFM-223; test: as above
Method in brief: as §1

[17] = tested on: HCC1143; test: as above
Method in brief: as §1

[18] = tested on: MDA-MB-231; test: normalised response (% of control), CellTiter-Glo; higher = more viable cells (100 = DMSO, 0 = benzethonium chloride kill control)
Method in brief: as §1

[19] = tested on: CAL-120; test: as above
Method in brief: as §1

[20] = tested on: MDA-MB-468; test: as above
Method in brief: as §1

[21] = tested on: MDA-MB-436; test: as above
Method in brief: as §1

[22] = tested on: CAL-148; test: as above
Method in brief: as §1

[23] = tested on: MCF-10A; test: as above
Method in brief: as §1

[24] = tested on: BT-549; test: as above
Method in brief: as §1

[25] = tested on: HCC1937; test: as above
Method in brief: as §1

[26] = tested on: HCC1599; test: as above
Method in brief: as §1

[27] = tested on: MDA-MB-453; test: as above
Method in brief: as §1

[28] = tested on: CAL-51; test: as above
Method in brief: as §1

[29] = tested on: SK-BR-3; test: as above
Method in brief: as §1

[30] = tested on: Hs578T; test: as above
Method in brief: as §1

[31] = tested on: DU-4475; test: as above
Method in brief: as §1

[32] = tested on: BT-474; test: as above
Method in brief: as §1

[33] = tested on: HDQ-P1; test: as above
Method in brief: as §1

[34] = tested on: CAL-85-1; test: as above
Method in brief: as §1

[35] = tested on: MFM-223; test: as above
Method in brief: as §1

[36] = tested on: HCC1143; test: as above
Method in brief: as §1

[37] = tested on: HDQ-P1; test: normalised response (% of control), CellTox Green; higher = less cell death (100 = DMSO, 0 = benzethonium chloride kill control)
Method in brief: as §1

SMILES | normalised response [1] [%] | normalised response [2] [%] | normalised response [3] [%] | normalised response [4] [%] | normalised response [5] [%] | normalised response [6] [%] | normalised response [7] [%] | normalised response [8] [%] | normalised response [9] [%] | normalised response [10] [%] | normalised response [11] [%] | normalised response [12] [%] | normalised response [13] [%] | normalised response [14] [%] | normalised response [15] [%] | normalised response [16] [%] | normalised response [17] [%] | normalised response [18] [%] | normalised response [19] [%] | normalised response [20] [%] | normalised response [21] [%] | normalised response [22] [%] | normalised response [23] [%] | normalised response [24] [%] | normalised response [25] [%] | normalised response [26] [%] | normalised response [27] [%] | normalised response [28] [%] | normalised response [29] [%] | normalised response [30] [%] | normalised response [31] [%] | normalised response [32] [%] | normalised response [33] [%] | normalised response [34] [%] | normalised response [35] [%] | normalised response [36] [%] | normalised response [37] [%]
CO[C@H]1C[C@@H]2CC[C@@H](C)[C@@](O)(O2)C(=O)C(=O)N2CCCC[C@H]2C(=O)O[C@H]([C@H](C)C[C@@H]2CC[C@@H](OP(C)(C)=O)[C@H](OC)C2)CC(=O)[C@H](C)/C=C(\C)[C@@H](O)[C@@H](OC)C(=O)[C@H](C)C[C@H](C)/C=C/C=C/C=C/1C [Ridaforolimus] (10 nM) | 122 | 91.5 | 124 | 88.2 | 93.3 | 109 | 134 | 110 | 103 | 104 | 110 | 49.6 | 99.8 | 99.1 | 94.9 | 100 | 73 | 87.1 | 66.3 | 59.8 | 76 | 64.5 | 89.5 | 56 | 68.4 | 109 | 63.6 | 59.9 | 62.6 | 61.6 | 77 | 89.1 | 81.2 | 69.9 | 72.8 | 65 | –
S=P(N1CC1)(N1CC1)N1CC1 [Thio-TEPA] (5000 nM) | 109 | 100 | – | 94.6 | 102 | 109 | 109 | 109 | 93.5 | 101 | 29.6 | 85.2 | 99.2 | 100 | 95.8 | 98.8 | 62.1 | 96.2 | 96.5 | 100 | 97.4 | 93 | 100 | 91.7 | 96.4 | 112 | 109 | 68.9 | 105 | 108 | 102 | 94.4 | 99.5 | 97.2 | 105 | 96.1 | 96
COc1cc2c(NC3CCN(C(C)C)CC3)nc(N3CCC(F)(F)CC3)nc2cc1OCCCN1CCCC1 [UNC0642] (10 nM) | – | – | – | – | – | – | – | – | – | – | – | – | – | – | – | – | – | 95.3 | 95.2 | 89 | 101 | 88.6 | 102 | 97.7 | 98.2 | 96.5 | 92 | 86.3 | 108 | 107 | 94.6 | 97.7 | 97.4 | 96.6 | 88.4 | 95.3 | –
COc1cc2/c(=N/c3ccc(Br)cc3F)nc[nH]c2cc1OCC1CCN(C)CC1 [Vandetanib] (0.1 nM) | – | – | – | – | – | – | – | – | – | – | – | – | – | – | – | – | – | 97.3 | 90.8 | 93.2 | 80.6 | 76.8 | 72.8 | 105 | 88.2 | 82.4 | 93.6 | 115 | 78 | 98.6 | 91 | 89.3 | 93.2 | 90.3 | 85.2 | 88.7 | –
COc1cc2/c(=N/c3ccc(Br)cc3F)nc[nH]c2cc1OCC1CCN(C)CC1 [Vandetanib] (100 nM) | 85.4 | 83 | 67.6 | 84.2 | 88.6 | 103 | 102 | – | 87 | 90.5 | 70.7 | 92 | 92 | 98 | 98.6 | 98.8 | 85.6 | 89.2 | 94.4 | 83.5 | 91.2 | 96.5 | 57.3 | 89 | 90.6 | 102 | 88 | 83.3 | 77.7 | 94.1 | 90.1 | 84.7 | 83 | 99.3 | 82.5 | 86.2 | –
COCC[n+]1c2c(n(Cc3cnccn3)c1C)C(=O)c1ccccc1C2=O [YM155] (10 nM) | – | – | – | – | – | – | – | – | – | – | – | – | – | – | – | – | – | 37.6 | 7.43 | 11.8 | 26.6 | 85 | 88.1 | 91.5 | 55.7 | 43.3 | 66.2 | 77.8 | 69.8 | 95.2 | 101 | 25.6 | 79.8 | 31.8 | 75.3 | 56.4 | –
